Values of other authors, collected in patent US20220290237A1, “METHOD FOR PREDICTING THE RESPONSE OF ANTIPSYCHOTIC DRUGS” (INSERM (INSTITUT NATIONAL DE LA SANTÉ ET DE LA RECHERCHE …, priority 2019, published 2022).

Conditions: first episode psychosis patients; cited from earlier work

For `Cc1cc2c(s1)Nc1ccccc1N=C2N1CCN(C)CC1` [olanzapine, 2-méthyl-4-(4-méthyl-1-pipérazinyl)-10H-thiéno[2,3-b][1,5]benzodiazepine], the “outcome after change from amisulpride to olanzapine” value is listed as “did not improve outcome for most of the patient”.
